Assay results from ChEMBL document CHEMBL4371005, “Overview of the Development of DprE1 Inhibitors for Combating the Menace of Tuberculosis” (J Med Chem, 2018).
≈ marks a conversion by molar mass, not a printed value.

Experiments:
[1] = test system: Mycobacterium tuberculosis; assay: Antimycobacterial activity against Mycobacterium tuberculosis H37Rv harboring deltarv3406 dprE1 L368P after overnight incubation by REMA method; type: functional
[2] = test system: Mycobacterium tuberculosis; assay: Antimycobacterial activity against Mycobacterium tuberculosis H37Rv harboring rv3405c mutant TRC4 after overnight incubation by REMA method; type: functional

CCOc1ccc(CNc2nc3cc(C(F)(F)F)ccc3nc2C(=O)O)cc1
MIC99 [1]: 12.5 µM (≈ 4.89 µg/mL) | MIC99 [2]: 6.3 µM (≈ 2.47 µg/mL)

COc1ccc(CNc2nc3cc(C(F)(F)F)ccc3nc2C(=O)O)cc1
MIC99 [1]: 12.5 µM (≈ 4.72 µg/mL) | MIC99 [2]: 6.3 µM (≈ 2.38 µg/mL)

O=C(O)c1nc2ccc(C(F)(F)F)cc2nc1NCc1ccc(C(F)(F)F)cc1
MIC99 [1]: 25 µM (≈ 10.4 µg/mL) | MIC99 [2]: 12.5 µM (≈ 5.19 µg/mL)

COc1ccc(CNc2nc3cc(C(F)(F)F)ccc3nc2C(=O)O)cc1F
MIC99 [1]: 25 µM (≈ 9.88 µg/mL) | MIC99 [2]: 12.5 µM (≈ 4.94 µg/mL)

O=C(O)c1nc2ccc(C(F)(F)F)cc2nc1NCc1ccc(Cl)cc1
MIC99 [1]: 25 µM (≈ 9.54 µg/mL) | MIC99 [2]: 12.5 µM (≈ 4.77 µg/mL)

N#Cc1ccc(CNc2nc3cc(C(F)(F)F)ccc3nc2C(=O)O)cc1
MIC99 [1]: 100 µM (≈ 37.2 µg/mL) | MIC99 [2]: 50 µM (≈ 18.6 µg/mL)

O=C(O)c1nc2ccc(C(F)(F)F)cc2nc1NCc1ccc(F)cc1
MIC99 [1]: 25 µM (≈ 9.13 µg/mL) | MIC99 [2]: 25 µM (≈ 9.13 µg/mL)

CCOC(=O)c1nc2ccc(C(F)(F)F)cc2nc1NCc1ccc(OC)cc1
MIC99 [1]: 12.5 to 25 µM | MIC99 [2]: 6.3 µM (≈ 2.55 µg/mL)
